Results: ChEMBL document CHEMBL3991601, “The target landscape of clinical kinase drugs” (Science, 2017)
Active and inactive are the calls of the source. For most assays here, no stated cut-off is given here; in the data, actives have a measured Kd and inactives only a lower limit.

Columns and labels:
[1] = target: Tyrosine-protein kinase SYK (Homo sapiens, UniProt P43405)
[2] = target: T1, Serine/threonine-protein kinase TAO1 (Homo sapiens, UniProt Q7L7X3)
T1 sequence (Q7L7X3 whole entry): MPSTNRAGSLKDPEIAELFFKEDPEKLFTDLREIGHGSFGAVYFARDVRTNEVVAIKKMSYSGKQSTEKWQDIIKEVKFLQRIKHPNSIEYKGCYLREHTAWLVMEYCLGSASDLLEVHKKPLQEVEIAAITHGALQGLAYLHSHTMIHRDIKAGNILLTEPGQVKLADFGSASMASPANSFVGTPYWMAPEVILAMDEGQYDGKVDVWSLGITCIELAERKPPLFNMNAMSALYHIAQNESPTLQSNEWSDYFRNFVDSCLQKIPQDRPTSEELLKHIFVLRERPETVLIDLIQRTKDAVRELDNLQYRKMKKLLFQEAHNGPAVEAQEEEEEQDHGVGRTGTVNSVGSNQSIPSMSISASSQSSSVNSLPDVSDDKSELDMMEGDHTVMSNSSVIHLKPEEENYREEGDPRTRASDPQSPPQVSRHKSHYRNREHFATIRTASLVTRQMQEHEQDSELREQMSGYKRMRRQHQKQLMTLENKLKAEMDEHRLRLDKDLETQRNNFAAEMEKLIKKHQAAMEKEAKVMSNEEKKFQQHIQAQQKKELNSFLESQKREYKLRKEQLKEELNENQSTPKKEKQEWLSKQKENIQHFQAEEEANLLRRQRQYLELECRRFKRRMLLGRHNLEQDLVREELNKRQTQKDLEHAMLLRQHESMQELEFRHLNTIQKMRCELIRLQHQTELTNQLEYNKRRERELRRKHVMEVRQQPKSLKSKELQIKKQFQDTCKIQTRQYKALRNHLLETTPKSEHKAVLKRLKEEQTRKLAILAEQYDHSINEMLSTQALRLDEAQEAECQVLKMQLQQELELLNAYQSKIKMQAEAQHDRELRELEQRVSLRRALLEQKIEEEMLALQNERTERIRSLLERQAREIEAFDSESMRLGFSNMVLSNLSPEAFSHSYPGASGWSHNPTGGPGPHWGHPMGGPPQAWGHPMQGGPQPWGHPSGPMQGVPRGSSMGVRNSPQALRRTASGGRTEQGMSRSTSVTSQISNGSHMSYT

[3] = target: Tyrosine-protein kinase Fer (Homo sapiens, UniProt P16591)
Chain of Tyrosine-protein kinase Fer (P16591 whole entry): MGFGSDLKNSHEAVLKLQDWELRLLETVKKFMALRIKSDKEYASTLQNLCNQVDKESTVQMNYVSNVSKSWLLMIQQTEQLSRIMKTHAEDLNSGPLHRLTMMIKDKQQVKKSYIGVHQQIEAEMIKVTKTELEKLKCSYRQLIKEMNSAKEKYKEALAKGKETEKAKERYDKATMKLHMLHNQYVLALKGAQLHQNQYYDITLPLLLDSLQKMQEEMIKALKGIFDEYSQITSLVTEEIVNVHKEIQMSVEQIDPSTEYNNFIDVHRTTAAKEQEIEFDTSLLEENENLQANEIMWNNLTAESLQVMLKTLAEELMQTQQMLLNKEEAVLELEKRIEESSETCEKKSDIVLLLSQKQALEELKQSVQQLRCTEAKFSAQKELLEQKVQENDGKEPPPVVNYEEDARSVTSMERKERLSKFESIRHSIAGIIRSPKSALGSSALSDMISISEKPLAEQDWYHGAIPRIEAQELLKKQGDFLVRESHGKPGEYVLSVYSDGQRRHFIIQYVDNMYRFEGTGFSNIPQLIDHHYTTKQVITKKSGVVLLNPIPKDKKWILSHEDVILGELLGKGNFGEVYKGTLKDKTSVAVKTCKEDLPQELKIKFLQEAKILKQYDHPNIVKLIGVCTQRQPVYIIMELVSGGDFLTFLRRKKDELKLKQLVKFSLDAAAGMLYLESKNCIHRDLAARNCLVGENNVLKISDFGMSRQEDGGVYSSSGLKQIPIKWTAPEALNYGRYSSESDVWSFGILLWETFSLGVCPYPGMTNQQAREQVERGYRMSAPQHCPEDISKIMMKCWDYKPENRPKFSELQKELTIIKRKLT

[4] = target: Serine/threonine-protein kinase 10 (Homo sapiens, UniProt O94804)
[5] = target: Mitogen-activated protein kinase 10 (Homo sapiens, UniProt P53779)
Chain of Mitogen-activated protein kinase 10 (P53779 whole entry, canonical isoform): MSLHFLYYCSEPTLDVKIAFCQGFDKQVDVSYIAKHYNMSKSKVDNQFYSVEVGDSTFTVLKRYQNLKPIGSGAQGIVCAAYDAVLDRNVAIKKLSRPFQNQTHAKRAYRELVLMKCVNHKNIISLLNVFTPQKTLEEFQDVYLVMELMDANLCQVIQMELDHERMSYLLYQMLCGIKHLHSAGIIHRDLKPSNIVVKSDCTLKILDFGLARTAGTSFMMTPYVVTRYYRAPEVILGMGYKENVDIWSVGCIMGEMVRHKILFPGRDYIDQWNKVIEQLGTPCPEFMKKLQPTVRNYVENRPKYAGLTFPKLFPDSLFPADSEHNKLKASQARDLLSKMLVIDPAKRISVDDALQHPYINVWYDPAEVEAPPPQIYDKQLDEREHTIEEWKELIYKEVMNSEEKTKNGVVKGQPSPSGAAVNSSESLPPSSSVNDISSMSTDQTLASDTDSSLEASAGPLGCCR

[6] = target: T2, Phosphorylase b kinase gamma catalytic chain, liver/testis isoform (Homo sapiens, UniProt P15735)
T2 sequence (P15735 whole entry): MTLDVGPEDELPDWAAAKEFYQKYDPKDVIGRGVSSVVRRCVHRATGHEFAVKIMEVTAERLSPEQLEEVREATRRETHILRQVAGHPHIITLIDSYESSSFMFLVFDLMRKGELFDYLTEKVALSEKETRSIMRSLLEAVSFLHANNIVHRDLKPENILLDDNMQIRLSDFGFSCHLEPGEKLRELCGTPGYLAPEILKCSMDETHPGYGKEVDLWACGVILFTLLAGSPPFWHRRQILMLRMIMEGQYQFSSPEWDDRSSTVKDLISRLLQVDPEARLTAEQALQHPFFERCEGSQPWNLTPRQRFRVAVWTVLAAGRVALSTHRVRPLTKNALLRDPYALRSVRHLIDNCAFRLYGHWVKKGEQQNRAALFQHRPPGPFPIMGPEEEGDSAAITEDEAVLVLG

[7] = target: U5 small nuclear ribonucleoprotein 200 kDa helicase (Homo sapiens, UniProt O75643)
Chain of U5 small nuclear ribonucleoprotein 200 kDa helicase (O75643 whole entry): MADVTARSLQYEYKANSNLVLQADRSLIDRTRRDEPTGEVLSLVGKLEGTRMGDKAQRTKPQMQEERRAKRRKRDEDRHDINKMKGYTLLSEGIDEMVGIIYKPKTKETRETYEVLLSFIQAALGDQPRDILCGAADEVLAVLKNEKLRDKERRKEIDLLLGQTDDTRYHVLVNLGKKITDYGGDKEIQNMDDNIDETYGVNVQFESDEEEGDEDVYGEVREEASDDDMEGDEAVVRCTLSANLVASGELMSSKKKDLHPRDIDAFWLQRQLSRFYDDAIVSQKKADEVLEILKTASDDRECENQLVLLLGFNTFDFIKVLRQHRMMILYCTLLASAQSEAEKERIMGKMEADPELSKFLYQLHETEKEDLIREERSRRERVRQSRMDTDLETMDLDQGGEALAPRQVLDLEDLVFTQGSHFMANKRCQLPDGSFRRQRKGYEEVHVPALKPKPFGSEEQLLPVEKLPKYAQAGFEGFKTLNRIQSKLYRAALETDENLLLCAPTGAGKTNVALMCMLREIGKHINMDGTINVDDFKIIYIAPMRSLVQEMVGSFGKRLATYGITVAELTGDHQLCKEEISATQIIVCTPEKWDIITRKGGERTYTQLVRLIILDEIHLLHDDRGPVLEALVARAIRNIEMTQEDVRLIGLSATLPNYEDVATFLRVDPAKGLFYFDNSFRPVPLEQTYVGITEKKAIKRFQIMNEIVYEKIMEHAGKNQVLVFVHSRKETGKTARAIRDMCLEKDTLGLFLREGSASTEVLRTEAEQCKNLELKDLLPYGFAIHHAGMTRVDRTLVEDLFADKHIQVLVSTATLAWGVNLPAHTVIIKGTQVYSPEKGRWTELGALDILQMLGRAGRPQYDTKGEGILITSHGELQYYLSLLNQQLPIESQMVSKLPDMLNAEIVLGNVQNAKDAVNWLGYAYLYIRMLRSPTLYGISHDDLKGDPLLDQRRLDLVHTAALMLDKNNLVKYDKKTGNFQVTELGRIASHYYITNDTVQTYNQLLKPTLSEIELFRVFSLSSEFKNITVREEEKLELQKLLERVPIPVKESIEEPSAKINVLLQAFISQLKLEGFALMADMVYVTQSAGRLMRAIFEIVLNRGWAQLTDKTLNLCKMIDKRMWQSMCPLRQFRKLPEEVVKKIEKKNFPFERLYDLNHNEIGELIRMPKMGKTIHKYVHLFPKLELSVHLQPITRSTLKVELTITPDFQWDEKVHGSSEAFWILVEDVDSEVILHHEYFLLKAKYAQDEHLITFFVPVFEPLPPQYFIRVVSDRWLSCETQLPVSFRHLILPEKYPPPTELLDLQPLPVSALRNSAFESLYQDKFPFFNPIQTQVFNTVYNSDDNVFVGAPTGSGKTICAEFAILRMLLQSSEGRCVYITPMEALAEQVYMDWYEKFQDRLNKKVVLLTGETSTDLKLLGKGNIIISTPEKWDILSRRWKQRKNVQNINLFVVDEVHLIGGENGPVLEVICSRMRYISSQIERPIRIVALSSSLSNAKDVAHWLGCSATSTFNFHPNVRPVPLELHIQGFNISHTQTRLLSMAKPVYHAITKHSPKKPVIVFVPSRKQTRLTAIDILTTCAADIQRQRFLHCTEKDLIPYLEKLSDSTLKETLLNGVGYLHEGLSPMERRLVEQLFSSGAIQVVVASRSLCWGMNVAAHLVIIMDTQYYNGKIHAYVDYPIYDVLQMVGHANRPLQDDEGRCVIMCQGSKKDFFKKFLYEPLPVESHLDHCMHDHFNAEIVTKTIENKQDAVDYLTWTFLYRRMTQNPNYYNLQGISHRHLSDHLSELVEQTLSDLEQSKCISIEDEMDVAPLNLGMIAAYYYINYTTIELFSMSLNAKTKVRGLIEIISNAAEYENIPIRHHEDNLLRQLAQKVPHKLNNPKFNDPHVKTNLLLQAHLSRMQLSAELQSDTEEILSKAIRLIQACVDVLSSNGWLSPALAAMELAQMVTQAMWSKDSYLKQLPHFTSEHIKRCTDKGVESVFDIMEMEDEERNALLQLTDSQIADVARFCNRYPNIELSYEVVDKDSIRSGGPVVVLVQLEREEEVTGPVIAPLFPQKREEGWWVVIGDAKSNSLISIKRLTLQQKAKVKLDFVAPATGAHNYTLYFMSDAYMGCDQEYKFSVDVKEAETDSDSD

[8] = target: T3, Serine/threonine-protein kinase 4 (Homo sapiens, UniProt Q13043)
T3 sequence (Q13043 whole entry): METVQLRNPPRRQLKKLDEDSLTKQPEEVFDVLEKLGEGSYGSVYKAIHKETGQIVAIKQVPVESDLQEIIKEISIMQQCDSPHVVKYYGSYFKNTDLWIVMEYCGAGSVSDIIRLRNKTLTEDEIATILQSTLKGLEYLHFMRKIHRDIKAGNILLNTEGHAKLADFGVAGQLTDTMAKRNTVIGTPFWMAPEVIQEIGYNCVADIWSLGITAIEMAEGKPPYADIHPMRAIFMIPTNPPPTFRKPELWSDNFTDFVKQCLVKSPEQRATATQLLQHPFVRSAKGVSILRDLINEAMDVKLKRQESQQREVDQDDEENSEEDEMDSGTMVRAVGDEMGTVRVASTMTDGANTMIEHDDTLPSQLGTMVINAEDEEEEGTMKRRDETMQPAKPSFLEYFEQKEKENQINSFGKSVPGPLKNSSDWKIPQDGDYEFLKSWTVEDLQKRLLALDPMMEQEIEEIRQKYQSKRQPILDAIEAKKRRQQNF

[9] = target: RAC-alpha serine/threonine-protein kinase (Homo sapiens, UniProt P31749)
Chain of RAC-alpha serine/threonine-protein kinase (P31749 whole entry): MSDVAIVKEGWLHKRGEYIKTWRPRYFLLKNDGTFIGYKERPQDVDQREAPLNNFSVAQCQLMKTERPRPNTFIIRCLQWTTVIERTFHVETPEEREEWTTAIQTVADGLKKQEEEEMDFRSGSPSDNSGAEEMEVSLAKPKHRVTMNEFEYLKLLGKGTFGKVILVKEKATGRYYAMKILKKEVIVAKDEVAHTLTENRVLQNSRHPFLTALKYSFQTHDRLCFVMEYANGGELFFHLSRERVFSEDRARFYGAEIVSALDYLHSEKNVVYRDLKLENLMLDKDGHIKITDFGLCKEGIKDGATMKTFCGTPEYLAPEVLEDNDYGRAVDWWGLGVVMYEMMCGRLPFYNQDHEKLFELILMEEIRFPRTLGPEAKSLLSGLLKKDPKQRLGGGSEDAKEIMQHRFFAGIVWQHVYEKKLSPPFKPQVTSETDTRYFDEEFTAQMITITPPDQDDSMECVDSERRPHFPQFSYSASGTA

[10] = target: STE20-like serine/threonine-protein kinase (Homo sapiens, UniProt Q9H2G2)
[11] = target: T4, Phenylalanine--tRNA ligase beta subunit (Homo sapiens, UniProt Q9NSD9)
T4 sequence (Q9NSD9 whole entry): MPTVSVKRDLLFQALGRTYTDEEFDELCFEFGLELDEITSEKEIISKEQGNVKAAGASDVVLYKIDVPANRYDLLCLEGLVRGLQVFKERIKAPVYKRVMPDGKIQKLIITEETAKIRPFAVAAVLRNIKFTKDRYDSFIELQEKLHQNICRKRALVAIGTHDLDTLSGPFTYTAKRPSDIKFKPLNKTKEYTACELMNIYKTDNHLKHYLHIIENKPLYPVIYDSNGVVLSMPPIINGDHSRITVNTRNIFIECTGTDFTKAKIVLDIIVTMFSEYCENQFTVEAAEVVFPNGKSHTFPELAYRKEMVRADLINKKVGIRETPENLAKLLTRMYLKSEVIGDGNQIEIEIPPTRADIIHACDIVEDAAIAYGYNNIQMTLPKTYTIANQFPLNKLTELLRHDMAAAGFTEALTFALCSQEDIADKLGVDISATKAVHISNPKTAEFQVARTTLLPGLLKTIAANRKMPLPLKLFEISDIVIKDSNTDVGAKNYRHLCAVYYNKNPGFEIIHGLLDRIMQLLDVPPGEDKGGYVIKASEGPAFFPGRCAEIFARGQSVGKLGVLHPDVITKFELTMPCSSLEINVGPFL

[12] = target: Mitogen-activated protein kinase 9 (Homo sapiens, UniProt P45984)
Chain of Mitogen-activated protein kinase 9 (P45984 whole entry): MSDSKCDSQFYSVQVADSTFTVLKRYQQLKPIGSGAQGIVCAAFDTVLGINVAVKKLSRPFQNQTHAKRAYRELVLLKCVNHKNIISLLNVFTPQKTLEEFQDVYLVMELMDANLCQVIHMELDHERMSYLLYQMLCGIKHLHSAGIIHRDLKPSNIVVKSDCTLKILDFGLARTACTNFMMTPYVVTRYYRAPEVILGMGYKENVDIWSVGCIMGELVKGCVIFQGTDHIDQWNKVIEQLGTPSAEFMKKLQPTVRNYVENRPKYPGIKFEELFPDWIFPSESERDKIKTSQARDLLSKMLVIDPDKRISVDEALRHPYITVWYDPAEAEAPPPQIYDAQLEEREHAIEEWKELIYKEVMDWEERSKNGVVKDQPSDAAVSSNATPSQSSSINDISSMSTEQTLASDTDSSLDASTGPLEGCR

Structure (SMILES)	Kd [1]	Kd [2]	Kd [3]	Kd [4]	Kd [5]	Kd [6]	Kd [7]	Kd [8]	Kd [9]	Kd [10]	Kd [11]	Kd [12]
COc1ccc(-c2ccc3ncc4c(c3c2)n(-c2ccc(N3CCNCC3)c(C(F)(F)F)c2)c(=O)n4C)cn1 [BGT-226 FREE BASE]	> 30 µM (inactive)	> 30 µM (inactive)	> 30 µM (inactive)	> 30 µM (inactive)	> 30 µM (inactive)	> 30 µM (inactive)	> 30 µM (inactive)	> 30 µM (inactive)	> 30 µM (inactive)	> 30 µM (inactive)	> 30 µM (inactive)	> 30 µM (inactive)
Cc1cc(Nc2nc(N[C@@H](C)c3ncc(F)cn3)ncc2Cl)n[nH]1 [AZD-1480]	> 30 µM (inactive)	> 30 µM (inactive)	0.517 µM (active)	0.728 µM (active)	> 30 µM (inactive)	> 30 µM (inactive)	> 30 µM (inactive)	0.861 µM (active)	> 30 µM (inactive)	0.686 µM (active)	> 30 µM (inactive)	> 30 µM (inactive)
COc1cc(F)c(F)c(Nc2ccc(I)cc2F)c1NS(=O)(=O)C1(C[C@H](O)CO)CC1 [REFAMETINIB]	> 30 µM (inactive)	> 30 µM (inactive)	> 30 µM (inactive)	> 30 µM (inactive)	0.036 µM (active)	> 30 µM (inactive)	> 30 µM (inactive)	> 30 µM (inactive)	> 30 µM (inactive)	> 30 µM (inactive)	> 30 µM (inactive)	> 30 µM (inactive)
CC1(COc2ccc3c(c2)ncn3-c2ccc3cccc(N4CCC(N)CC4)c3n2)COC1 [CRENOLANIB]	> 30 µM (inactive)	1.24 µM	> 30 µM (inactive)	3.43 µM (active)	> 30 µM (inactive)	5.02 µM (active)	> 30 µM (inactive)	0.702 µM (active)	> 30 µM (inactive)	> 30 µM (inactive)	> 30 µM (inactive)	> 30 µM (inactive)
CC[C@@](C)(Nc1ccnc(-c2c[nH]c3ncccc23)n1)C(=O)NCC(F)(F)F [DECERNOTINIB]	> 30 µM (inactive)	3.41 µM (active)	> 30 µM (inactive)	0.071 µM (active)	> 30 µM (inactive)	> 30 µM (inactive)	> 30 µM (inactive)	> 30 µM (inactive)	> 30 µM (inactive)	0.058 µM (active)	> 30 µM (inactive)	> 30 µM (inactive)
CCc1cc2c(cc1N1CCC(N3CCOCC3)CC1)C(C)(C)c1[nH]c3cc(C#N)ccc3c1C2=O [ALECTINIB]	> 30 µM (inactive)	> 30 µM (inactive)	3.76 µM (active)	> 30 µM (inactive)	> 30 µM (inactive)	1.71 µM (active)	> 30 µM (inactive)	> 30 µM (inactive)	> 30 µM (inactive)	> 30 µM (inactive)	> 30 µM (inactive)	> 30 µM (inactive)
Cc1c(NC(=O)OC[C@@H]2COCCN2)cn2ncnc(Nc3ccc4c(cnn4Cc4cccc(F)c4)c3)c12 [AC-480]	> 30 µM (inactive)	> 30 µM (inactive)	> 30 µM (inactive)	> 30 µM (inactive)	> 30 µM (inactive)	> 30 µM (inactive)	> 30 µM (inactive)	> 30 µM (inactive)	> 30 µM (inactive)	> 30 µM (inactive)	> 30 µM (inactive)	> 30 µM (inactive)

More lines, now with the values ahead:

Kd [1]	Kd [2]	Kd [3]	Kd [4]	Kd [5]	Kd [6]	Kd [7]	Kd [8]	Kd [9]	Kd [10]	Kd [11]	Kd [12]	Structure (SMILES)
> 30 µM (inactive)	> 30 µM (inactive)	> 30 µM (inactive)	> 30 µM (inactive)	> 30 µM (inactive)	> 30 µM (inactive)	> 30 µM (inactive)	> 30 µM (inactive)	> 30 µM (inactive)	> 30 µM (inactive)	> 30 µM (inactive)	> 30 µM (inactive)	FC(F)(F)c1ccc(CNc2ccc(Cc3c[nH]c4ncc(Cl)cc34)cn2)cn1 [PEXIDARTINIB]
> 30 µM (inactive)	> 30 µM (inactive)	1.11 µM (active)	> 30 µM (inactive)	> 30 µM (inactive)	> 30 µM (inactive)	> 30 µM (inactive)	> 30 µM (inactive)	> 30 µM (inactive)	> 30 µM (inactive)	> 30 µM (inactive)	> 30 µM (inactive)	C=CC(=O)Nc1cccc(Nc2nc(Nc3ccc(N4CCN(C(C)=O)CC4)cc3OC)ncc2C(F)(F)F)c1 [ROCILETINIB]
> 30 µM (inactive)	> 30 µM (inactive)	> 30 µM (inactive)	> 30 µM (inactive)	> 30 µM (inactive)	> 30 µM (inactive)	> 30 µM (inactive)	> 30 µM (inactive)	> 30 µM (inactive)	> 30 µM (inactive)	> 30 µM (inactive)	> 30 µM (inactive)	O=S(=O)(c1cccc2c(O)nccc12)N1CCCNCC1 [HYDROXYFASUDIL]
> 30 µM (inactive)	> 30 µM (inactive)	> 30 µM (inactive)	> 30 µM (inactive)	> 30 µM (inactive)	> 30 µM (inactive)	> 30 µM (inactive)	> 30 µM (inactive)	> 30 µM (inactive)	> 30 µM (inactive)	> 30 µM (inactive)	> 30 µM (inactive)	C[C@@H]1COC(Nc2ccc3ncnc(Nc4ccc(OCc5nccs5)c(Cl)c4)c3c2)=N1 [VARLITINIB]
> 30 µM (inactive)	2.08 µM (active)	> 30 µM (inactive)	0.096 µM (active)	> 30 µM (inactive)	3.5 µM (active)	> 30 µM (inactive)	> 30 µM (inactive)	> 30 µM (inactive)	0.22 µM (active)	> 30 µM (inactive)	> 30 µM (inactive)	O=C(O)c1ccc2c(c1)nc(Nc1cccc(Cl)c1)c1ccncc12 [SILMITASERTIB]
